Several values for one entry are separate records, joined by “and”; a condition that tells them apart may be missing. Identical values can stand only once. Inconclusive results and toxic doses are left out.

The assay deals with BDF1 mice, P388 leukemia ip, median survival T/C. The assay is described as follows: NCI In Vivo Anticancer Drug Screen. Data for tumor model P388 Leukemia (intraperitoneal) in B6D2F1 (BDF1) mice. The settings on record: endpoint: median survival time, higher = longer survival. The procedure, abridged: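 Reported as T/C, where T is the survival measurement in dosed animals and C the same measurement in vehicle controls.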

[1] abbreviates: dose: 100.0 mg/kg/injection, schedule: Q04DX003 (ip), vehicle: saline with Tween-80.
Setting [2] is: dose: 200.0 mg/kg/injection, schedule: Q04DX003 (ip), vehicle: saline with Tween-80.
The mark [3] stands for this setting: dose: 400.0 mg/kg/injection, schedule: Q04DX003 (ip), vehicle: saline with Tween-80.
Setting [4] is: dose: 50.0 mg/kg/injection, schedule: Q01DX009 (ip), vehicle: saline.
[5] abbreviates: dose: 50.0 mg/kg/injection, schedule: Q04DX003 (ip), vehicle: saline.
Where [6] appears, read: dose: 100.0 mg/kg/injection, schedule: Q01DX009 (ip), vehicle: saline.
Setting [7] is: dose: 200.0 mg/kg/injection, schedule: Q01DX009 (ip), vehicle: saline.
[8] abbreviates: dose: 50.0 mg/kg/injection, schedule: Q01DX009 (ip), vehicle: saline with Tween-80.
Where [9] appears, read: dose: 100.0 mg/kg/injection, schedule: Q01DX009 (ip), vehicle: saline with Tween-80.
Setting [10] is: dose: 200.0 mg/kg/injection, schedule: Q01DX009 (ip), vehicle: saline with Tween-80.

As to `OC1CCCC2CCC[N-]C12.OC1CCCC2CCC[N-]C12.[O]=[V][OH]` (stereo not drawn), the T/C runs as follows: (dose: 3.12 mg/kg/injection, schedule: Q01DX009 (ip), vehicle: Klucel (hydroxypropylcellulose) (HPC)) 100 % of control; (dose: 6.25 mg/kg/injection, schedule: Q01DX009 (ip), vehicle: Klucel (hydroxypropylcellulose) (HPC)) 95 % of control; (dose: 6.25 mg/kg/injection, schedule: Q01DX009 (ip), vehicle: saline) 110 % of control; (dose: 12.5 mg/kg/injection, schedule: Q01DX009 (ip), vehicle: Klucel (hydroxypropylcellulose) (HPC)) 100 % of control; (dose: 12.5 mg/kg/injection, schedule: Q01DX009 (ip), vehicle: saline) 150 % of control; (dose: 25.0 mg/kg/injection, schedule: Q01DX009 (ip), vehicle: Klucel (hydroxypropylcellulose) (HPC)) 100 % of control.
Take `O=NN(CCCl)C(=O)c1cc(Cl)cc(Cl)c1`: the T/C runs as follows: (dose: 25.0 mg/kg/injection, schedule: Q04DX003 (ip), vehicle: saline with Tween-80) 104 % of control; (dose: 50.0 mg/kg/injection, schedule: Q04DX003 (ip), vehicle: saline with Tween-80) 104 % of control; under setting [1], 100 % of control and 118 % of control; under setting [2], 100 % of control and 104 % of control; under setting [3], 100 % of control.
On to `CC(O)C(O)C(O)C(O)/C=N/O` (stereo not drawn), for which the T/C is 92 % of control (dose: 200.0 mg/kg/injection, schedule: Q04DX003 (ip), vehicle: Klucel (hydroxypropylcellulose) (HPC)) and 88 % of control (dose: 400.0 mg/kg/injection, schedule: Q04DX003 (ip), vehicle: Klucel (hydroxypropylcellulose) (HPC)).
With `COc1cccc2c1C(=O)c1c(O)c3c(c(O)c1C2=O)C[C@@](O)(/C(C)=N/NC(=O)c1ccccc1)C[C@@H]3OC1CC(N)C(O)C(C)O1` (stereo partly drawn), the T/C reads like this: (dose: 0.38 mg/kg/injection, schedule: Q01DX009 (ip), vehicle: water) 166 % of control; (dose: 0.75 mg/kg/injection, schedule: Q01DX009 (ip), vehicle: water) 166 % of control; (dose: 1.5 mg/kg/injection, schedule: Q01DX009 (ip), vehicle: saline) 216 % of control; (dose: 1.5 mg/kg/injection, schedule: Q01DX009 (ip), vehicle: water) 123 % of control and 217 % of control; (dose: 3.0 mg/kg/injection, schedule: Q01DX009 (ip), vehicle: saline) 250 % of control; (dose: 3.0 mg/kg/injection, schedule: Q01DX009 (ip), vehicle: water) 245 % of control and 110 % of control. In addition, the T/C reads like this: (dose: 3.0 mg/kg/injection, schedule: Q04DX003 (ip), vehicle: saline) 226 % of control; (dose: 6.0 mg/kg/injection, schedule: Q01DX009 (ip), vehicle: saline) 166 % of control; (dose: 6.0 mg/kg/injection, schedule: Q01DX009 (ip), vehicle: water) 164 % of control; (dose: 6.0 mg/kg/injection, schedule: Q04DX003 (ip), vehicle: saline) 208 % of control; (dose: 6.5 mg/kg/injection, schedule: Q04DX003 (ip), vehicle: water) 171 % of control; (dose: 10.8 mg/kg/injection, schedule: Q04DX003 (ip), vehicle: water) 165 % of control. Moreover, the T/C (dose: 12.0 mg/kg/injection, schedule: Q01DX009 (ip), vehicle: saline) was 95 % of control; the T/C (dose: 12.0 mg/kg/injection, schedule: Q04DX003 (ip), vehicle: saline) was 195 % of control; the T/C (dose: 18.0 mg/kg/injection, schedule: Q04DX003 (ip), vehicle: water) is 103 % of control.
With `C=CC[N+](C)(CC=C)CC[N+](C)(CC=C)CC=C`, the T/C (dose: 50.0 mg/kg/injection, schedule: Q01DX009 (ip), vehicle: water) was 95 % of control; the T/C (dose: 50.0 mg/kg/injection, schedule: Q04DX003 (ip), vehicle: water) was 109 % of control; the T/C (dose: 100.0 mg/kg/injection, schedule: Q01DX009 (ip), vehicle: water) was 104 % of control; the T/C (dose: 100.0 mg/kg/injection, schedule: Q04DX003 (ip), vehicle: water) was 104 % of control; the T/C (dose: 150.0 mg/kg/injection, schedule: Q01DX009 (ip), vehicle: water) was 95 % of control.
For `COc1ccc(C=[N+](C)CCc2ccc(OC)c(OC)c2)cc1OC`, the T/C is, setting by setting: (dose: 25.0 mg/kg/injection, schedule: Q01DX009 (ip), vehicle: saline) 95 % of control; under setting [4], 101 % of control; under setting [5], 106 % of control; under setting [6], 100 % of control; (dose: 100.0 mg/kg/injection, schedule: Q04DX003 (ip), vehicle: saline) 102 % of control; under setting [7], 116 % of control. Besides, the T/C was 100 % of control (dose: 200.0 mg/kg/injection, schedule: Q04DX003 (ip), vehicle: saline) and 106 % of control (dose: 400.0 mg/kg/injection, schedule: Q04DX003 (ip), vehicle: saline).
For `Cc1cccc(C(=O)/C=C/c2ccc(OCc3ccccc3)cc2)c1`, the T/C was 91 % of control under setting [8], 91 % of control under setting [9] and 89 % of control under setting [10].
For `CCCCCSC(=S)N(C)NC(=O)c1ccccn1`, the T/C by setting is: under setting [8], 103 % of control; under setting [9], 101 % of control; under setting [10], 100 % of control.
Take `c1ccc2c(c1)ccc1[nH]c3ccccc3c12`: the T/C by setting is: under setting [1], 116 % of control; under setting [2], 112 % of control; under setting [3], 105 % of control.
For `C/C=C/C[P+](C)(c1ccccc1)c1ccccc1`, the T/C reads like this: (dose: 0.2 mg/kg/injection, schedule: Q01DX009 (ip), vehicle: saline) 104 % of control; (dose: 0.4 mg/kg/injection, schedule: Q01DX009 (ip), vehicle: saline) 103 % of control; (dose: 0.8 mg/kg/injection, schedule: Q01DX009 (ip), vehicle: saline) 104 % of control.
As to `CC(O)C(F)(F)C(F)(F)C(F)(F)C(C)O` (stereo not drawn), the T/C under setting [4] was 90 % of control; the T/C under setting [6] is 104 % of control; the T/C (dose: 100.0 mg/kg/injection, schedule: Q04DX003 (ip), vehicle: saline sonified) is 116 % of control; the T/C under setting [7] is 104 % of control; the T/C (dose: 200.0 mg/kg/injection, schedule: Q04DX003 (ip), vehicle: saline sonified) was 94 % of control; the T/C (dose: 400.0 mg/kg/injection, schedule: Q04DX003 (ip), vehicle: saline sonified) is 116 % of control.
For `CCOC(=O)NP(=O)(N1CC1)N1CC1`, the T/C was 105 % of control (dose: 2.1 mg/kg/injection, schedule: Q04DX003 (ip), vehicle: saline); 110 % of control (dose: 3.1 mg/kg/injection, schedule: Q04DX003 (ip), vehicle: saline); 272 % of control (dose: 11.0 mg/kg/injection, schedule: Q04DX003 (ip), vehicle: saline); 225 % of control (dose: 25.0 mg/kg/injection, schedule: Q04DX003 (ip), vehicle: saline); 333 % of control and 220 % of control (dose: 33.0 mg/kg/injection, schedule: Q04DX003 (ip), vehicle: saline); 300 % of control and 172 % of control and 195 % of control under setting [5]. Further, under “dose: 75.0 mg/kg/injection, schedule: Q04DX003 (ip), vehicle: saline”, the T/C was 88 % of control and 95 % of control.
With `CC(C)CCN(CCC(C)C)CC(O)c1cc(-c2ccc(C(F)(F)F)cc2)nc(-c2ccc(C(F)(F)F)cc2)c1` (stereo not drawn), the T/C is 113 % of control under setting [8], 106 % of control under setting [9] and 113 % of control under setting [10].
Consider `COc1cccc2c1C(=O)c1c(O)c3c(c(O)c1C2=O)CC(O)(C(C)=O)CC3O` (stereo not drawn), for which the T/C is 95 % of control and 104 % of control (dose: 1.25 mg/kg/injection, schedule: Q01DX001 (ip), vehicle: saline); 100 % of control and 110 % of control (dose: 2.5 mg/kg/injection, schedule: Q01DX001 (ip), vehicle: saline); 100 % of control (dose: 5.0 mg/kg/injection, schedule: Q01DX001 (ip), vehicle: saline); 100 % of control and 109 % of control (dose: 10.0 mg/kg/injection, schedule: Q01DX001 (ip), vehicle: saline).
